{"source": "patent US12662707B2", "about": "“MYC amplification drives resistance to pan-RAS inhibitors in pancreatic cancer” (The Trustees of Columbia University in the City of New York, priority 2024, dated 2026)", "key": {"[1]": {"system": "RAS/MAPK pathway (pERK, pAKT, pS6, c-PARP) in human PDAC cell lines", "assay": "Western blot of RAS pathway signaling, human PDAC cell lines", "format": "cell-based", "description": "Cells were seeded at 7.5×10^5-4×10^6 cells per well in 6-well plates or 100 mm dishes in growth medium. After overnight incubation, indicated compound (RMC-7977, IAG933 or DMSO (0.1% v/v)) were added and incubated for the indicated time points. Cells were washed twice with ice-cold PBS and lysed with NP-40 lysis buffer (Thermo Fisher Scientific, J60766), MSD Tris Lysis Buffer (MSD, R60TX-2), RIPA buffer (50 mM TRIS-HCl, pH 7.5, 150 mM NaCl, 1% NP-40, 0.5% sodium deoxycholate, 0.1% SDS) or a lysis buffer containing 1% Triton X-100, 20 mM Tris-HCl, 150 mM NaCl, and 1 mM EDTA. All lysis buffers were supplemented with protease and phosphatase inhibitors. Lysates were scraped and collected before centrifugation at 21,000×g for 10 minutes at 4° C. The protein-containing supernatants were quantified by BCA assay (Pierce, 23225) and equal quantities of protein were denatured with LDS and reducing agent at 95° C. Samples were resolved on 12% or 4-12% Bis-Tris polyacrylamide gels, then transferred to a nitrocellulose or PVDF membrane using the iBlot 2.0 system or wet transfer. Membranes were blocked in Intercept TBS buffer (LiCor, 927-60001) or 3-5% milk before probing with primary antibodies overnight at 4° C. Secondary antibodies were added as appropriate, and the membranes were imaged on a LiCor Odyssey imager. Alternatively, membranes were incubated with HRP-linked secondary antibodies and developed with Clarity or ClarityMax chemiluminescent substrates using a ChemiDoc XRS+ or ChemiDoc™ MP imager (Bio-Rad)."}, "murine PDAC cell lines": {"system": "murine PDAC cell lines", "assay": "Murine cell viability assay", "format": "cell-based", "conditions": "most murine PDAC cell lines; 72 hours", "description": "PDAC murine cell lines harboring KrasG12D or KrasG12C mutations were seeded at 2×10^3 in a 96-well plate. Cells were treated 24 hours later with DMSO or serial dilutions of RMC-7977. Cell viability was evaluated 72 hours later by measuring adenosine triphosphate (ATP) levels using the CellTiter-Glo® Luminescent Cell Viability Assay (Promega, G7572) according to the manufacturer's instructions. For experiments comparing naive and resistant cell lines, live cells were fluorescently labelled using Calcein AM (20-minute incubation at 500 nM, Thermo Fisher) and counted using the SpectraMax i3X multimode detection platform (Molecular Devices). Technical triplicates were run for each biological replicate and a total of 3-4 biological replicates was done for each cell line. Growth percentage was calculated by normalizing drug-treated values to DMSO control, which was set to 100%. Four-parameter drug response curves were generated from 3+ biological replicates in GraphPad Prism. Mean±s.d. was plotted for each tested dilution."}, "[2]": {"system": "human PDAC xenograft models", "assay": "Human PDAC xenograft (CDX/PDX) tumor growth studies", "format": "in vivo, mouse", "conditions": "10 mg/kg daily", "description": "Studies were conducted at the following CROs: GenenDesign (Shanghai, China), Pharmaron (Beijing, China), and Wuxi AppTec (SuZhou, China). All CDX/PDX mouse studies and procedures related to animal handling, care and treatment were conducted in compliance with all applicable regulations and guidelines of the relevant Institutional Animal Care and Use Committee (IACUC). Female BALB/c nude mice and NOD SCID mice 6-8 weeks old from Beijing Vital River/VR Laboratory Animal Co., LTD, Beijing AniKeeper Biotech Co., Ltd., and Shanghai Sino-British SIPPR/BK Laboratory Animal Co., LTD were used for these studies.\nIn order to generate subcutaneous xenograft tumors each mouse was inoculated at the right flank with tumor cells (2×10^6-1×10^7) in 100-200 μl of media/PBS supplemented with Matrigel (1:1). Treatments were started when the average tumor volume reached 150-250 mm^3 (for tumor growth evaluation) and 400-600 mm^3 (for single dose pharmacokinetic/pharmacodynamic (PK/PD) study). Tumor diameter was measured in two dimensions using a digital caliper, and the tumor volume in mm^3 was calculated using the formula: Volume=((width)2×length)/2. Mice on studies were weighed and tumors were measured 2 times a week.\nThe human primary cancer xenograft models were generated using fresh tumor fragments obtained from hospitals with informed consent from the patients in accordance with protocols approved by the Hospital Institutional Ethical Committee (IEC). The tumor fragments were serial passaged in BABL/c nude mice and then cryopreserved for further use. For this study, recovered tumor fragments of about 15-30 mm^3 in size from each model were implanted into right flanks of BALB/c nude mice. Treatment started when average tumor volume reached 150-250 mm^3.\nTo generate orthotopic xenograft tumors, survival surgeries were carried out and 2×10^6 5×10^6 luciferase-expressing tumor cells in 30-50 μL Media/Matrigel mixtures (1:1) were implanted directly into the mouse pancreas. Treatments were started when the tumors produced an average of 50-80×10^7 photon/second as measured by the in vivo imaging system (IVIS). All subsequent tumor measures were also conducted by IVIS. For routine monitoring, mice were injected intraperitoneally with 15 mg/mL (at 5 μL/g BW) of D-Luciferin (Perkin Elmer) and imaged, after which Living Image software (Perkin Elmer) was used to compute regions of interest (ROI) and tumor volumes.\nTumor-bearing animals were randomized and assigned into groups (n=3-10/group). Vehicle or RMC-7977 was administered via oral gavage daily at 10 mg/kg and animals were treated for 21-28 days. Studies were terminated early if tumor burden reached humane endpoint. Body weights were collected twice a week during the study. Means±s.e.m were plotted in the waterfall plots. For the single-dose pharmacokinetic/pharmacodynamic (PK/PD) study, mice were randomized and assigned into groups (n=3-6/dose/timepoint). A single dose of RMC-7977 was administered orally at 10 mg/kg, 25 mg/kg and 50 mg/kg. Tissues (including tumor, colon and skin) were harvested at indicated time points and either fixed in 10% formalin, embedded in Optimal Cutting Temperature (OCT; Sakura, 4583) solution or snap-frozen in LN2 for further analysis. Whole blood was transferred into K2EDTA Microtainer tubes (BD, 365974), incubated for 5 minutes and snap-frozen in LN2."}}, "data": [{"smiles": "CCn1c(-c2cc(N3CCN(C4CC4)CC3)cnc2[C@H](C)OC)c2c3cc(ccc31)-c1csc(n1)C[C@H](NC(=O)[C@H]1[C@@H]3COC[C@@H]31)C(=O)N1CCC[C@H](N1)C(=O)OCC(C)(C)C2", "note": "[RMC-7977]", "values": [{"measurement": "phosphorylation of ERK1/2 (pERK)", "setting": "[1]; human PDAC cell lines, 1-100 nM", "result": "reduced phosphorylation"}, {"measurement": "inhibition of PI3K effector signaling (pAKT, pS6S235/S236)", "setting": "[1]; human cell lines", "result": "more variable inhibition"}, {"measurement": "duration of inhibition of pERK", "setting": "[1]; human cell lines, 100 nM", "result": 48, "unit": "hours"}, {"measurement": "apoptotic marker cleaved PARP (c-PARP)", "setting": "[1]; human cell lines, later timepoints", "result": "induction"}, {"measurement": "potency in concentration-response cell viability assays", "setting": "murine PDAC cell lines", "result": "low nanomolar potency"}, {"measurement": "models with tumor regressions", "setting": "[2]; 21-28 days", "result": "7/10"}, {"measurement": "response of KRASQ61H mutant HS-766T line in CDX setting", "setting": "[2]; HS-766T CDX", "result": "among the most responsive"}, {"measurement": "tolerability", "setting": "[2]; all 10 models", "result": "well tolerated"}, {"measurement": "anti-tumor activity", "setting": "[2]; all 10 models, 21-28 days", "result": "significant anti-tumor activity"}, {"measurement": "body weight over time", "setting": "[2]; treated animals", "result": "stable body weight"}]}]}
